Source: ChEMBL document CHEMBL5329202, “New aryl-/heteroarylpiperazine derivatives of 1,7-dimethyl-8,9-diphenyl-4-azatricyclo[5.2.1.02,6]dec-8-ene-3,5,10-trione: Synthesis and preliminary studies of biological activities” (Bioorg Med Chem, 2023)
Calls of active or inactive are those of the source. The rule behind the calls is not given here.

Tests used:
SW480 [1] = experiment: Induction of apoptosis in human SW480 cells assessed as late apoptotic cells at IC50 incubated for 72 hrs by Annexin V-FITC/PI staining based flow cytometric analysis (reference value: 0.8 %); format: functional
HCT-116 [2] = experiment: Antiproliferative activity against human HCT-116 cells assessed as decrease in IL-6 level at IC50 measured after 72 hrs by ELISA assay relative to control; format: functional; design: scale not given: the % may be the effect or the level left
HMEC-1 [3] = experiment: Induction of apoptosis in human HMEC-1 cells assessed as early apoptotic cells at IC50 incubated for 72 hrs by Annexin V-FITC/PI staining based flow cytometric analysis (reference value: 2.4 %); format: functional
SW480 [4] = experiment: Antiproliferative activity against human SW480 cells assessed as reduction in cell number at IC50 measured after 72 hrs by trypan blue dye based assay relative to control; format: functional; design: scale not given: the % may be the effect or the level left
HaCaT [5] = experiment: Induction of apoptosis in human HaCaT cells assessed as late apoptotic cells at IC50 incubated for 72 hrs by Annexin V-FITC/PI staining based flow cytometric analysis relative to control; format: functional
PC-3 [6] = experiment: Cytotoxicity against human PC-3 cells assessed as cell growth inhibition measured after 72 hrs by MTT assay; format: functional, cell-based; settings: PC-3, 72 h
SW480 [7] = experiment: Cytotoxicity against human SW480 cells assessed as cell growth inhibition measured after 72 hrs by MTT assay; format: functional, cell-based; settings: SW480, 72 h
HCT-116 [8] = experiment: Antiproliferative activity against human HCT-116 cells assessed as reduction in cell viability at IC50 measured after 72 hrs by trypan blue dye based assay relative to control; format: functional
PC-3 [9] = experiment: Induction of apoptosis in human PC-3 cells assessed as early apoptotic cells at IC50 incubated for 72 hrs by Annexin V-FITC/PI staining based flow cytometric analysis (reference value: 0.3 %); format: functional
PC-3 [10] = experiment: Induction of apoptosis in human PC-3 cells assessed as increase in caspase-3/7 activity at IC50 incubated for 24 hrs by Glo assay relative to control; format: functional
HCT-116 [11] = experiment: Cytotoxicity against human HCT-116 cells assessed as cell growth inhibition measured after 72 hrs by MTT assay; format: functional, cell-based; settings: HCT-116, 72 h
SW480 [12] = experiment: Induction of apoptosis in human SW480 cells assessed as necrotic cells at IC50 incubated for 72 hrs by Annexin V-FITC/PI staining based flow cytometric analysis (reference value: 0.1 %); format: functional
PC-3 [13] = experiment: Antiproliferative activity against human PC-3 cells assessed as reduction in cell viability at IC50 measured after 72 hrs by trypan blue dye based assay relative to control; format: functional
SW480 [14] = experiment: Antiproliferative activity against human SW480 cells assessed as reduction in cell viability at IC50 measured after 72 hrs by trypan blue dye based assay relative to control; format: functional
SW480 [15] = experiment: Induction of apoptosis in human SW480 cells assessed as early apoptotic cells at IC50 incubated for 72 hrs by Annexin V-FITC/PI staining based flow cytometric analysis (reference value: […]); format: functional
HCT-116 [16] = experiment: Induction of apoptosis in human HCT-116 cells assessed as increase in caspase-3/7 activity at IC50 incubated for 24 hrs by Glo assay relative to control; format: functional
PC-3 [17] = experiment: Antiproliferative activity against human PC-3 cells assessed as reduction in cell number at IC50 measured after 72 hrs by trypan blue dye based assay relative to control; format: functional; design: scale not given: the % may be the effect or the level left
K562 = experiment: Antiproliferative activity against human K562 cells assessed as reduction in cell viability at IC50 measured after 72 hrs by trypan blue dye based assay relative to control; format: functional
HMEC-1 [18] = experiment: Induction of apoptosis in human HMEC-1 cells assessed as late apoptotic cells at IC50 incubated for 72 hrs by Annexin V-FITC/PI staining based flow cytometric analysis (reference value: 4.7 %); format: functional
PC-3 [19] = experiment: Induction of apoptosis in human PC-3 cells assessed as late apoptotic cells at IC50 incubated for 72 hrs by Annexin V-FITC/PI staining based flow cytometric analysis (reference value: 1.7 %); format: functional
HMEC-1 [20] = experiment: Induction of apoptosis in human HMEC-1 cells assessed as viable cells at IC50 incubated for 72 hrs by Annexin V-FITC/PI staining based flow cytometric analysis (reference value: 90.6 %); format: functional
A549 = experiment: Cytotoxicity against human A549 cells assessed as cell growth inhibition measured after 72 hrs by MTT assay; format: functional, cell-based; settings: A549, 72 h
[21] = molecular target: 5-hydroxytryptamine receptor 2A (Rattus norvegicus, UniProt P14842); experiment: Displacement of [3H]ketanserin from Sprague-Dawley rat 5-HT2A receptor assessed as inhibition constant measured after 60 mins by competitive binding assay
SW480 [22] = experiment: Induction of apoptosis in human SW480 cells assessed as viable cells at IC50 incubated for 72 hrs by Annexin V-FITC/PI staining based flow cytometric analysis (reference value: 97.7 %); format: functional
PC-3 [23] = experiment: Induction of apoptosis in human PC-3 cells assessed as viable cells at IC50 incubated for 72 hrs by Annexin V-FITC/PI staining based flow cytometric analysis (reference value: 94.4 %); format: functional
PC-3 [24] = experiment: Induction of apoptosis in human PC-3 cells assessed as necrotic cells at IC50 incubated for 72 hrs by Annexin V-FITC/PI staining based flow cytometric analysis (reference value: 3.6 %); format: functional
SW480 [25] = experiment: Antiproliferative activity against human SW480 cells assessed as decrease in IL-6 level at IC50 measured after 72 hrs by ELISA assay relative to control; format: functional; design: scale not given: the % may be the effect or the level left
SW-620 [26] = experiment: Antiproliferative activity against human SW620 cells assessed as reduction in cell viability at IC50 measured after 72 hrs by trypan blue dye based assay relative to control; format: functional
SW-620 [27] = experiment: Induction of apoptosis in human SW620 cells assessed as necrotic cells at IC50 incubated for 72 hrs by Annexin V-FITC/PI staining based flow cytometric analysis (reference value: 0.7 %); format: functional
SW-620 [28] = experiment: Antiproliferative activity against human SW620 cells assessed as decrease in IL-6 level at IC50 measured after 72 hrs by ELISA assay relative to control; format: functional; design: scale not given: the % may be the effect or the level left
SW-620 [29] = experiment: Antiproliferative activity against human SW620 cells assessed as reduction in cell number at IC50 measured after 72 hrs by trypan blue dye based assay relative to control; format: functional; design: scale not given: the % may be the effect or the level left
SW-620 [30] = experiment: Induction of apoptosis in human SW620 cells assessed as late apoptotic cells at IC50 incubated for 72 hrs by Annexin V-FITC/PI staining based flow cytometric analysis (reference value: 1.2 %); format: functional
SW-620 [31] = experiment: Induction of apoptosis in human SW620 cells assessed as early apoptotic cells at IC50 incubated for 72 hrs by Annexin V-FITC/PI staining based flow cytometric analysis (reference value: 5.2 %); format: functional
SW-620 [32] = experiment: Induction of apoptosis in human SW620 cells assessed as viable cells at IC50 incubated for 72 hrs by Annexin V-FITC/PI staining based flow cytometric analysis (reference value: 92.9 %); format: functional
HaCaT [33] = experiment: Induction of apoptosis in human HaCaT cells at IC50 incubated for 72 hrs by Annexin V-FITC/PI staining based flow cytometric analysis; format: functional, cell-based

Chain of 5-hydroxytryptamine receptor 2A (P14842 whole entry): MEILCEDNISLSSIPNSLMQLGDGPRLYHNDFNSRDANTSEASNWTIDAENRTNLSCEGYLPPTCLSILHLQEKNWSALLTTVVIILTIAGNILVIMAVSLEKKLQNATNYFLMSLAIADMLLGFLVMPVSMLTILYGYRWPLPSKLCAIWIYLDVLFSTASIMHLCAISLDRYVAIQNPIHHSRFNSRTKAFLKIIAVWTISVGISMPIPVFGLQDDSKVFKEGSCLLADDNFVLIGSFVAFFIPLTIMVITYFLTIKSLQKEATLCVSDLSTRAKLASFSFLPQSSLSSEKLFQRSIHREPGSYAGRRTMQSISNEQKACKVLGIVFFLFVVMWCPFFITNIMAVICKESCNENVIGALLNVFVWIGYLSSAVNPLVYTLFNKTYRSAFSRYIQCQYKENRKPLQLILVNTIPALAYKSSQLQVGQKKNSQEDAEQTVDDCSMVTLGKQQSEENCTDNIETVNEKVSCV

| Structure (SMILES) | Activity (SW480 [1]) | Activity (HCT-116 [2]) | Activity (HMEC-1 [3]) | Activity (SW480 [4]) | IC50 (PC-3 [6]) | IC50 (SW480 [7]) | Activity (HCT-116 [8]) | Activity (PC-3 [9]) | Activity (PC-3 [10]) | IC50 (HCT-116 [11]) | Activity (SW480 [12]) | Activity (PC-3 [13]) | Activity (SW480 [14]) | Activity (SW480 [15]) | Activity (HCT-116 [16]) | Activity (PC-3 [17]) | Activity (K562) | Activity (HMEC-1 [18]) | Activity (PC-3 [19]) | Activity (HMEC-1 [20]) | also measured |
| --- | --- | --- | --- | --- | --- | --- | --- | --- | --- | --- | --- | --- | --- | --- | --- | --- | --- | --- | --- | --- | --- |
| CC12C(=O)C(C)(C(c3ccccc3)=C1c1ccccc1)C1C(=O)N(CCCCN3CCN(c4ccccc4F)CC3)C(=O)C12 (stereo not given) | 1.4% | 53% | 1.9% | 46% | 9.19 µM | 7.75 µM | 35% | 6.3% | 127% | 4.48 µM | 0.1% | 26% | 21% | 10.8% | 137% | 27% | 30% | 7.3% | 16.2% | 85.8% | Activity (HaCaT [5]): 12.3%; IC50 (A549): 30.7 µM; Ki [21]: 300 nM; Activity (SW480 [22]): 87.8%; Activity (PC-3 [23]): 75.6%; Activity (PC-3 [24]): 2.1% |
| CC12C(=O)C(C)(C(c3ccccc3)=C1c1ccccc1)C1C(=O)N(CCCCN3CCN(c4ccccc4Cl)CC3)C(=O)C12 (stereo not given) | 1% | 53% | 3.5% | 38% | 7.85 µM | 5.29 µM | 30% | 4.2% | 216% | 3.58 µM | 0.1% | 26% | 21% | 10% | 137% | 43% | 30% | 4.7% | 32.6% | 86.7% | Activity (SW480 [25]): 48%; Activity (SW-620 [26]): 23%; Activity (SW-620 [27]): 1.8%; Activity (SW-620 [28]): 24%; Activity (SW-620 [29]): 27%; Activity (SW-620 [30]): 2.2%; Activity (SW-620 [31]): 6.1%; Activity (SW-620 [32]): 89.9%; IC50 (A549): 25 µM; Ki [21]: 100 nM; Activity (HaCaT [33]): inactive; Activity (SW480 [22]): 89%; Activity (PC-3 [23]): 60.1%; Activity (PC-3 [24]): 3.1% |
